Reference: US20240376099A1, “COMPOUNDS AND COMPOSITIONS AS INHIBITORS OF ENDOSOMAL TOLL-LIKE RECEPTORS” (Novartis AG, priority 2016, published 2024)

How the values were obtained:
Format in all cases: cell-based
TLR7 = molecular target: T1, TLR7 (Homo sapiens, UniProt Q9NYK1); test: huPBMC TLR7 Antagonist IFNα Assay; settings: human PBMCs stimulated with ssRNA40 10 μg/mL (DOTAP), 14-16 hrs; IFNα2b AlphaLISA read-out
T1 construct: Fresh blood was collected from normal human donors; endogenous in cells; host or cells: human PBMCs from fresh donor blood
T1 sequence (Q9NYK1 27-1049): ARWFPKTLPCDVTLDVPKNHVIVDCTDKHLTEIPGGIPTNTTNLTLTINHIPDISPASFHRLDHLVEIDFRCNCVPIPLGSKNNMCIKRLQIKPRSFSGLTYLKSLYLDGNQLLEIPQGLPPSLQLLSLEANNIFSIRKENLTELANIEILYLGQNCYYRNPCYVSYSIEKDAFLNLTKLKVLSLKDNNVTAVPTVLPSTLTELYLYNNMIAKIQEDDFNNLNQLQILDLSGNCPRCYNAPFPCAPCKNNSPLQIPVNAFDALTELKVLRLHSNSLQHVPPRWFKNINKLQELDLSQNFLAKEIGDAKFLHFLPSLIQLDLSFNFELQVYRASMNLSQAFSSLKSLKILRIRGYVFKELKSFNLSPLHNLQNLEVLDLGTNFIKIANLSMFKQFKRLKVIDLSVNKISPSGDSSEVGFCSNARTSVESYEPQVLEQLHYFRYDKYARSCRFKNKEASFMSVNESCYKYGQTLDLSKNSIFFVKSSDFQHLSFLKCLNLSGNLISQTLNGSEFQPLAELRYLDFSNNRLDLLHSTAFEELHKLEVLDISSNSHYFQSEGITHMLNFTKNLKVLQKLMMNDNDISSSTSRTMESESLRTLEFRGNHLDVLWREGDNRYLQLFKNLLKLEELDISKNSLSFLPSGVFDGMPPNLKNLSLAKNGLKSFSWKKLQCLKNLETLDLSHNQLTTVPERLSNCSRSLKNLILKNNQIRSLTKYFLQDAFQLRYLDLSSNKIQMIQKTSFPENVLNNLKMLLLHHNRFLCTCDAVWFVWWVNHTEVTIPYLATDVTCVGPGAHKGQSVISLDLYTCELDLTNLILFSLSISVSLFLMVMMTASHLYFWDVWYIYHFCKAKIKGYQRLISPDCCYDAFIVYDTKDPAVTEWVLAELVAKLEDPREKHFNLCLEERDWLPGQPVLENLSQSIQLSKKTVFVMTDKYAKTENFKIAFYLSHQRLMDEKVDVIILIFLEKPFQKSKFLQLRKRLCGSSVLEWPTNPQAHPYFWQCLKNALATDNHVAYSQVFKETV
Procedure: (§1) Compounds were generally serially diluted (1/3) in DMSO and plated on sterile 384 well tissue culture plates and stored until ready for use. Each ten-point dilution was typically plated in triplicate in parallel rows.
(§2) Fresh blood was collected from normal human donors underwritten informed consent in heparinized syringes on the morning of the assay. The blood was diluted in RPMI-1640 medium and the white blood cells were separated from red blood cells by centrifugation (800 g 15′ 0 acceleration, 0 brake) on a Ficoll cushion. Peripheral blood mononuclear cells (PBMCs) were separated from platelets by a series of low-speed centrifugations (1000RPM 10′) in PBS+5% HI—FBS and 1 mM EDTA. Purified PBMCs were re-suspended in assay medium (RPMI-1640 w Glutamax (Invitrogen) supplemented with 5% HI—FBS, 10 mM HEPES, 50 uM β-mercaptoethanol, and 100 mG/L penicillin/streptomycin cocktail). Viable PBMCs were counted on a hemacytometer and kept on ice until ready for plating.
(§3) A 4× concentration (4 ug/ml or 40 ug/ml for TLR8 or TLR7 assays, respectively) of the TLR7/8 agonist ssRNA40 (IDT) was complexed with 10% DOTAP (Roche) in assay medium for 30 min prior to addition to the PBMC suspension (5 million cells/ml). After addition, the final concentration of ssRNA40 in the TLR7/8 stimulated PBMC suspension was 1 μg/ml for TLR8 assay, and 10 μg/mL for the TLR7 assay. The final DOTAP concentration was 2.5%. Diluted PBMCs (5 million cells/ml) were treated with 4×TLR9 agonist ODN2216 (Invivogen). Final concentration of ODN2216 in TLR9 stimulated PBMC suspension was 0.3 μM.
(§4) Agonist stimulated PBMCs were plated on the compound treated 384 well plates at 150,000 cells/well. Un-stimulated PBMCs were plated as controls on each plate. Plating volume was 40 μL per well. DMSO concentration in each well was 0.25%.
(§5) A separate plate, without compounds, with titrations of ssRNA40 and ODN2216 was included in every assay to measure agonist response of each donor's PBMC prep. Assay plates were placed in a tissue culture incubator (37° C., 5% CO2) for 14-16 hrs. After this incubation, the plates were centrifuged and stored at −20° C. until they were assayed.
(§6) IL-6 TR-FRET Assay for TLR8 activity: • 1) Cisbio Human IL-6 kit, 20,000 tests (62TNFPEC), and GNF High-Base TC 384 well plates (cat #789163G) were used; • 2) the Anti-TIL-6 Cryptate conjugate and the Anti-IL-6 XL665 conjugate were diluted 1:20 in Reconstitution Buffer; • 3) a 1:1 mixture of 3 μl/well Anti-IL-6 Cryptate conjugate and 3 μl/well Anti-IL-6 XL665 conjugate was prepared; • 4) 6 μl/well HTRF dilution mastermix was added to 6 μl of transferred supernatant samples in proxiplates; • 5) The plates were incubated for 3 hrs at rt in the dark; and • 6) the levels of IL-6 production was measured using an Envision plate reader (665 nm (emmission)/590 nm (excitation)) with HTRF settings and ratiometric read-out: (XL665 emission/Eu Cryptate emission)×10,000. IFNα2b AlphaLISA Assay for TLR7 or TLR9 activity After thawing the assay plates, 6 μL of supernatant samples were transferred to a low-volume AlphaPlate 384SW (Perkin-Elmer). The concentration of IFNα in supernatants was measured using the IFNα2b AlphaLISA Assay (Perkin-Elmer: AL297F). 3 μL of IFNα acceptor beads/biotinylated antibody solution was added first, using laboratory automation. After an hour incubation, […] of streptavidin […] bead solution was added. The plates containing this mixture were incubated in the dark for an hour and read on an appropriate plate reader at reading parameters set by the manufacturer. (Envision, EnSpire: Perkin-Elmer).

TLR9 = molecular target: T2, TLR9 (Homo sapiens, UniProt Q9NR96); test: huPBMC TLR9 Antagonist IFNα Assay; settings: human PBMCs stimulated with ODN2216 0.3 μM, 14-16 hrs; IFNα2b AlphaLISA read-out
T2 construct: Fresh blood was collected from normal human donors; endogenous in cells; host or cells: human PBMCs from fresh donor blood
T2 sequence (Q9NR96 26-1032): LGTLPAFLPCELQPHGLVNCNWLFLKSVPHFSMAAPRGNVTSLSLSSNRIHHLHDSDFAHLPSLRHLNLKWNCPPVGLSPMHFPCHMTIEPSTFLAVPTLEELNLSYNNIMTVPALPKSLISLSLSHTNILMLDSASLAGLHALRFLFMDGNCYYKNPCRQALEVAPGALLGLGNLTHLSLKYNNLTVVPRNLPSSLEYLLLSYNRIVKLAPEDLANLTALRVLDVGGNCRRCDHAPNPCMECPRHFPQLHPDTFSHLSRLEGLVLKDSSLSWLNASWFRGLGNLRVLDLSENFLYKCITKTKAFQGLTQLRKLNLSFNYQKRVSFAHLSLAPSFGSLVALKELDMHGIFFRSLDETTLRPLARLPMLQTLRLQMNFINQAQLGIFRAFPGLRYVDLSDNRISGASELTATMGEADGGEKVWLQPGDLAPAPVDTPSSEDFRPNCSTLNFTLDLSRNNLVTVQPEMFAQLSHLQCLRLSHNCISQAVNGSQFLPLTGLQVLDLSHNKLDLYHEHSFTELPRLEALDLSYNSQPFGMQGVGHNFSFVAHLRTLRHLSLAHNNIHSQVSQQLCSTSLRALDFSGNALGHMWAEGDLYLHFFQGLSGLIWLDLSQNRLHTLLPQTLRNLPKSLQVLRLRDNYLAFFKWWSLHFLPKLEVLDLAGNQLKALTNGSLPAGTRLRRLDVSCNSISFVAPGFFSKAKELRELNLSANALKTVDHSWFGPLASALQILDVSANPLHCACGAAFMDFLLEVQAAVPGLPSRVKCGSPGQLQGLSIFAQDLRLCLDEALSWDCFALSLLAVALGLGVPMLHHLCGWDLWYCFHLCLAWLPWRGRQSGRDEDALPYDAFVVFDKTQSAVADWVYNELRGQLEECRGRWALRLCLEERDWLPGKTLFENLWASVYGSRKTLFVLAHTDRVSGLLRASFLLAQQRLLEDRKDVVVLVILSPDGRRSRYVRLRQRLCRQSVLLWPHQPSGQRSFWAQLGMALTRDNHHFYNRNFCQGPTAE
Procedure: as §1, §2, §3, §4, §5, §6

TLR8 = molecular target: T3, TLR8 (Homo sapiens, UniProt Q9NR97); test: huPBMC TLR8 Antagonist IL-6 TR-FRET Assay; parameters: Fresh blood was collected from normal human donors; endogenous in cells; host or cells: human PBMCs from fresh donor blood; settings: human PBMCs stimulated with ssRNA40 1 μg/ml (DOTAP), 14-16 hrs; IL-6 TR-FRET read-out
T3 sequence (Q9NR97 27-1041): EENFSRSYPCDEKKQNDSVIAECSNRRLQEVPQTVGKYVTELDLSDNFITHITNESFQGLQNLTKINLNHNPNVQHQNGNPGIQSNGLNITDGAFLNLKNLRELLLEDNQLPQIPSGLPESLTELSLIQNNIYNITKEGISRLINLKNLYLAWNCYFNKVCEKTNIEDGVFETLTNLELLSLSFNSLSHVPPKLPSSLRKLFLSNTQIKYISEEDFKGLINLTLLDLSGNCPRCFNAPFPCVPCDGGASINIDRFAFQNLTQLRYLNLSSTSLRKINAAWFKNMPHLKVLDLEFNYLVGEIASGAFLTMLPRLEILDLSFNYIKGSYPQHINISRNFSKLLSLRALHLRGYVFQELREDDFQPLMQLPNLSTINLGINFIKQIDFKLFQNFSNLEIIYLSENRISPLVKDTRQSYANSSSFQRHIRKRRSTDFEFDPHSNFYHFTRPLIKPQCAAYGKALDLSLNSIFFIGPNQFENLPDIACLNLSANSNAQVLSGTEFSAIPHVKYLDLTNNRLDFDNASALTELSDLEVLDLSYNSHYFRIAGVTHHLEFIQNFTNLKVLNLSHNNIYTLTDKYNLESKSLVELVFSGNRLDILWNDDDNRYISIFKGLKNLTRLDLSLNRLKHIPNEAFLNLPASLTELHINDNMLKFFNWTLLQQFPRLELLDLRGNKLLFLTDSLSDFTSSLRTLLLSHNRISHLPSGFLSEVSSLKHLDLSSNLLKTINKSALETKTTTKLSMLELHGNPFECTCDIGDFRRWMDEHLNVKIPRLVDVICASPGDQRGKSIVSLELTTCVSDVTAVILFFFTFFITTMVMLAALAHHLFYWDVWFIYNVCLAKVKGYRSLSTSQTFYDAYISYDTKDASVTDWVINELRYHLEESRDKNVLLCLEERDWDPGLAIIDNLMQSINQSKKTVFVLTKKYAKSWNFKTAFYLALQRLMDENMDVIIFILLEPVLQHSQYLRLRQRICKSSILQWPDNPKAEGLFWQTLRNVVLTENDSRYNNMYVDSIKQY
Procedure, shortened: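 Human PBMCs from fresh donor blood (150,000 cells/well) stimulated 14–16 h at 37 °C with DOTAP-complexed ssRNA40 (final 1 μg/ml for TLR8, 10 μg/mL for TLR7) or ODN2216 (final 0.3 μM, TLR9), 0.25% DMSO, ten-point 1/3 compound dilutions. Supernatant IL-6 read by HTRF (TLR8); IFNα by IFNα2b AlphaLISA (TLR7/TLR9).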

Row | IC50 (TLR7) [nM] | IC50 (TLR9) [nM] | IC50 (TLR8) [nM] | Compound
1 | 4 | > 10000 | – | CC(=O)NC12CCC(Cn3nc(C)c4c3CCN(c3cc(C)nc5c3cnn5C)C4)(CC1)CC2 [compound 47, N-(4-((5-(1,6-dimethyl-1H-pyrazolo[3,4-b]pyridin-4-yl)-3-methyl-4,5,6,7-tetrahydro-1H-pyrazolo[4,3-c]pyridin-1-yl)methyl)bicyclo[2.2.2]octan-1-yl)acetamide]
2 | 61 | – | > 10000 | CCn1ncc2c(N3CCc4c(c(C)nn4CC45CCC(NC(=O)OC(C)(C)C)(CC4)CC5)C3)cc(C)nc21 [compound 145, tert-butyl (4-((5-(1-ethyl-6-methyl-1H-pyrazolo[3,4-b]pyridin-4-yl)-3-methyl-4,5,6,7-tetrahydro-1H-pyrazolo[4,3-c]pyridin-1-yl)methyl)bicyclo[2.2.2]octan-1-yl)carbamate]
